Structures are written as SMILES.

What all share (format): functional, cell-based
One assay deals with HL-60. Nature of the assay: Antiproliferative activity against human HL60 cell line.
The subject of another assay is HT-29. Nature of the assay: Antiproliferative activity against human HT29 cell line.
The subject of another assay is MCF7. Nature of the assay: Antiproliferative activity against human MCF7 cell line.
In the next assay the test system is HeLa. Nature of the assay: Antiproliferative activity against human HeLa cell line.
The test system of another assay is MRC5. Nature of the assay: Antiproliferative activity against human MRC5 cell line.
In the next assay the test system is K562. Nature of the assay: Antiproliferative activity against human K562 cell line.

What is called IC50 is the concentration that gives 50% inhibition. Low values mean inhibition by little substance, high ones a need for much substance. For the molecule `CCCCCC(=O)N[C@@H]1[C@H](O)[C@@H](CO)O[C@H]1c1nc(C(N)=O)cs1`, the IC50 in the assay with HL-60 was over 100 µM; in the assay on HT-29, over 100 µM; in the assay on MCF7, 0.014 µM; in the assay on HeLa, 8.75 µM; with MRC5, over 100 µM; in the assay with K562, over 100 µM.
In the case of `CCCCCCCCCCCC(=O)N[C@@H]1[C@H](O)[C@@H](CO)O[C@H]1c1nc(C(N)=O)cs1`, the IC50 with HL-60 was 4.82 µM; in the assay on HT-29 it was 0.011 µM; in the assay with MCF7, over 100 µM; in the assay on HeLa, 3.22 µM; with MRC5 it was over 100 µM; in the assay with K562 it was 35.6 µM.
For `NC(=O)c1csc([C@@H]2O[C@H](CO)[C@@H](O)[C@H]2O)n1` [TIAZOFURIN], in the assay with MCF7, the IC50 is 7.98 µM.

These data come from ChEMBL document CHEMBL1147017, “Synthesis and antiproliferative activity of two new tiazofurin analogues with 2'-amido functionalities” (Bioorg Med Chem Lett, 2006).
